Our source for the GI50 values is US20240059698A1 (Accutar Biotechnology Inc., priority 2022, published 2024).

As usually defined, the GI50 is the concentration at which growth is held to half of that of the control.

Common to all, as to assay type: cell-based
The subject of assay [1] is HCC827-ASV cells (human EGFR exon 20 insertion mutant V769_D770insASV). Nature of the assay: Cell growth inhibition (CellTiter-Glo), HCC827-ASV. The conditions noted are these: 72 h, HCC827-ASV cells, 3 days, CellTiter-Glo, read-out: Cell growth inhibition, GI50 (nM) HCC827-ASV. The protocol:
Generation of HCC827-SVD, HCC827-ASV, and HCC827-YVMA cell lines. The HCC827-SVD cell line was generated by first transducing HCC827 cells (ATCC) with lentiviral particles expressing codon-optimized human EGFR exon 20 insertion mutant D770_N771insSVD, and then selecting under 5 µg/mL puromycin treatment for a week. The resulting cells were further transduced with lentiviral particles carrying EGFR sgRNA and CAS9 to knockout the endogenous alleles of EGER and then selected under 500 µg/mL hygromycin B treatment for two weeks. The limiting dilution approach was used to subsequently generate the single clone of the HCC827-SVD stable cell line. Endogenous EGFR knockout was confirmed by Sanger sequencing of cell genomic DNA, and expression of exogenous mutant EGFR was verified by Western blot analysis.
HCC827-ASV and HCC827-YVMA cell lines were generated in a similar approach as HCC827-SVD, except that HCC827 cells (ATCC) were first transduced with lentiviral particles expressing codon-optimized human EGFR exon 20 insertion mutant V769_D770insASV and human ERBB2 exon20 insertion mutant A775_G776ins YVMA, respectively.
2. Cell Growth Inhibition for HCC827, HCC827-SVD, HCC827-ASV, HCC827-YVMA, and A431.
HCC827(ATCC), HCC827-SVD, HCC827-ASV, and HCC827-YVMA cells were seeded in 96-well plates at 5000 cells/well in 90 μL of RPMI growth medium containing 10% FBS and 1% Penicillin Streptomycin. A431 (ATCC) cells were seeded in 96-well plates at 5000 cells/well in 90 μL of DMEM growth medium containing 10% FBS and 1% Penicillin Streptomycin. Cells were incubated at 37° C. overnight and then administered with 10 μL 10× test compounds prepared in the growth medium at various concentrations. After administration of the compounds, cells were incubated at 37° C. for 3 days. Before the CellTiter-Glo assay, the plates were equilibrated at room temperature for approximately 30 minutes. 100 ul of CellTiter-Glo reagent (Promega) was added to each well. The plates were then incubated at room temperature for 10 minutes and luminescence was recorded by the EnSight® multimode plate reader (PerkinElmer). Table 7 listed selected compounds in cellular growth assay.

Assay [2] relates to HCC827-SVD cells (human EGFR exon 20 insertion mutant D770_N771insSVD). Nature of the assay: Cell growth inhibition (CellTiter-Glo), HCC827-SVD. The settings on record: 72 h, 3 days. The essentials:
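Growth read by CellTiter-Glo luminescence after 3-day compound exposure at 37 °C. Engineered clonal HCC827 line (native EGFR deleted by CRISPR, mutant EGFR re-expressed) plated at 5000 cells/well in 10% FBS RPMI the night before dosing.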
(Cellular ATP, detected with luciferase, serves as a proxy for viable cell number.)

In assay [3] the test system is HCC827-YVMA cells (human ERBB2 exon20 insertion mutant A775_G776ins YVMA). Kind of assay: Cell growth inhibition (CellTiter-Glo), HCC827-YVMA. The settings on record: 72 h, HCC827-YVMA cells, 3 days, CellTiter-Glo, read-out: Cell growth inhibition, GI50 (nM) HCC827-YVMA. The essentials: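 Growth in RPMI with 10% FBS was measured by CellTiter-Glo luminescence after 3 days at 37 °C with test compounds across a concentration range. The single-clone HCC827 lines carry a lentiviral YVMA (ERBB2) or ASV (EGFR) exon 20 insertion, with endogenous EGFR removed via sgRNA/Cas9.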

For a further assay, the system named is A431 cells. Kind of assay: Cell growth inhibition (CellTiter-Glo), A431. The conditions noted are these: Homo sapiens, A-431, 72 h, 3 days. The method, boiled down: (§1)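 Readout was CellTiter-Glo luminescence after 3-day compound treatment at 37° C. Cells were seeded at 5000/well the previous night: HCC827 in RPMI/10% FBS, A431 in DMEM/10% FBS.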
In the next assay the test system is HCC827 cells. Nature of the assay: Cell growth inhibition (CellTiter-Glo), HCC827. The settings on record: Homo sapiens, 72 h, 3 days. The essentials: as §1

Turning to `C=CC(=O)N1CCC(c2c[nH]c3ncnc(Nc4ccc(Oc5ccnc(NC(=O)C6CC6)c5)cc4F)c23)CC1` [Compound 232, N-(4-(4-((5-(1-acryloylpiperidin-4-yl)-7H-pyrrolo[2,3-d]pyrimidin-4-yl)amino)-3-fluorophenoxy)pyridin-2-yl)cyclopropanecarboxamide], the GI50 in assay [1] was under 50 nM; in assay [2], under 50 nM; in assay [3], under 50 nM; in the assay on A431 cells it was over 1000 nM.
Regarding `C=CC(=O)N1CCC(c2c[nH]c3ncnc(Nc4ccc(Oc5ccn(Cc6cc(C)ccn6)n5)cc4F)c23)CC1` [Compound 157, 1-(4-(4-((2-fluoro-4-((1-((4-methylpyridin-2-yl)methyl)-1H-pyrazol-3-yl)oxy)phenyl)amino)-7H-pyrrolo[2,3-d]pyrimidin-5-yl)piperidin-1-yl)prop-2-en-1-one], the GI50 in assay [1] was 50 to 200 nM; in assay [2] it was 50 to 200 nM; in the assay with HCC827 cells, 200 to 1000 nM; in assay [3], 50 to 200 nM; in the assay on A431 cells, over 1000 nM.
Take `C=CC(=O)N1CCC(c2c[nH]c3ncnc(Nc4ccc(Oc5ccnc(N6CCN(C)CC6)c5)cc4F)c23)CC1` [Compound 152, 1-(4-(4-((2-fluoro-4-((2-(4-methylpiperazin-1-yl)pyridin-4-yl)oxy)phenyl)amino)-7H-pyrrolo[2,3-d]pyrimidin-5-yl)piperidin-1-yl)prop-2-en-1-one]: the GI50 in assay [1] is 200 to 1000 nM; in assay [2], 200 to 1000 nM; with HCC827 cells, over 1000 nM; in assay [3], 200 to 1000 nM; in the assay with A431 cells it was over 1000 nM.
Consider `C=CC(=O)N1CCC(c2ccn3ncnc(Nc4ccc(Oc5ccnc(N6C[C@@H](C)O[C@@H](C)C6)c5)cc4F)c23)CC1` [Compound 199, 1-(4-(4-((4-((2-((2R,6S)-2,6-dimethylmorpholino)pyridin-4-yl)oxy)-2-fluorophenyl)amino)pyrrolo[2,1-f][1,2,4]triazin-5-yl)piperidin-1-yl)prop-2-en-1-one], for which the GI50 was under 50 nM in assay [1]; under 50 nM in assay [2]; 50 to 200 nM with HCC827 cells; under 50 nM in assay [3]; over 1000 nM in the assay with A431 cells.
As for `C=CC(=O)N1CCC(c2c[nH]c3ncnc(Nc4ccc(Oc5ccnc(Nc6ccccn6)c5)cc4F)c23)CC1` [Compound 135, 1-(4-(4-((2-fluoro-4-((2-(pyridin-2-ylamino)pyridin-4-yl)oxy)phenyl)amino)-7H-pyrrolo[2,3-d]pyrimidin-5-yl)piperidin-1-yl)prop-2-en-1-one], the GI50 in assay [1] was under 50 nM; in assay [2], under 50 nM; with HCC827 cells it was over 1000 nM; in assay [3], under 50 nM; in the assay with A431 cells, 200 to 1000 nM.
For `C=CC(=O)N1CCC(c2csc3ncnc(Nc4ccc(Oc5ccn(Cc6cc(C)ccn6)n5)cc4F)c23)CC1` [Compound 158, 1-(4-(4-((2-fluoro-4-((1-((4-methylpyridin-2-yl)methyl)-1H-pyrazol-3-yl)oxy)phenyl)amino)thieno[2,3-d]pyrimidin-5-yl)piperidin-1-yl)prop-2-en-1-one], the GI50 is 200 to 1000 nM in assay [1]; over 1000 nM in assay [2]; over 1000 nM in the assay with HCC827 cells; 50 to 200 nM in assay [3]; over 1000 nM in the assay on A431 cells.
As for `C=CC(=O)N1CCC(c2n[nH]c3ncnc(Nc4ccc(Oc5ccnc(N6C[C@@H](C)O[C@@H](C)C6)c5)cc4F)c23)CC1` [Compound 167, 1-(4-(4-((4-((2-((2R,6S)-2,6-dimethylmorpholino)pyridin-4-yl)oxy)-2-fluorophenyl)amino)-1H-pyrazolo[3,4-d]pyrimidin-3-yl)piperidin-1-yl)prop-2-en-1-one], the concentration for 50% growth inhibition (GI50) in assay [1] is 50 to 200 nM; in assay [2] it was 50 to 200 nM; with HCC827 cells, over 1000 nM; in assay [3] it was 50 to 200 nM; in the assay with A431 cells, over 1000 nM.
For the compound `C=CC(=O)N1CCC(c2n[nH]c3ncnc(Nc4ccc(OCc5ccccn5)c(Cl)c4)c23)CC1` [Compound 166, 1-(4-(4-((3-chloro-4-(pyridin-2-ylmethoxy)phenyl)amino)-1H-pyrazolo[3,4-d]pyrimidin-3-yl)piperidin-1-yl)prop-2-en-1-one], the GI50 (in assay [1]; in assay [2]; in the assay on HCC827 cells; in assay [3]; in the assay with A431 cells) was under 50 nM throughout.
Regarding `C=CC(=O)N1CCC(c2c[nH]c3ncnc(Nc4ccc(Oc5ccnc(NC(=O)C6CCC6)c5)cc4F)c23)CC1` [Compound 231, N-(4-(4-((5-(1-acryloylpiperidin-4-yl)-7H-pyrrolo[2,3-d]pyrimidin-4-yl)amino)-3-fluorophenoxy)pyridin-2-yl)cyclobutanecarboxamide], the GI50 in assay [1], in assay [2] and in assay [3] was 50 to 200 nM throughout.
`C=CC(=O)N1CCC(c2c[nH]c3ncnc(Nc4cc(Cl)c(OCc5ccccn5)cc4F)c23)CC1` [Compound 221, 1-(4-(4-((5-chloro-2-fluoro-4-(pyridin-2-ylmethoxy)phenyl)amino)-7H-pyrrolo[2,3-d]pyrimidin-5-yl)piperidin-1-yl)prop-2-en-1-one]: the GI50 in assay [1], in assay [2] and in assay [3] was under 50 nM throughout.
For the compound `C=CC(=O)N1CCC(c2c[nH]c3ncnc(Nc4ccc(OCc5ncsc5C)c(Cl)c4)c23)CC1` [Compound 219, 1-(4-(4-((3-chloro-4-((5-methylthiazol-4-yl)methoxy)phenyl)amino)-7H-pyrrolo[2,3-d]pyrimidin-5-yl)piperidin-1-yl)prop-2-en-1-one], the GI50 in assay [1], in assay [2] and in assay [3] was under 50 nM each time.
With `C=CC(=O)N1CCC(c2c[nH]c3ncnc(Nc4ccc(OCc5ccsn5)c(Cl)c4)c23)CC1` [Compound 229, 1-(4-(4-((3-chloro-4-(isothiazol-3-ylmethoxy)phenyl)amino)-7H-pyrrolo[2,3-d]pyrimidin-5-yl)piperidin-1-yl)prop-2-en-1-one], the GI50 in assay [1], in assay [2] and in assay [3] was under 50 nM in each case.
For `C=CC(=O)N1CCC(c2c[nH]c3ncnc(Nc4ccc(OCc5ccccn5)c(Br)c4F)c23)CC1` [Compound 220, 1-[4-[4-[3-bromo-2-fluoro-4-(2-pyridylmethoxy)anilino]-7H-pyrrolo[2,3-d]pyrimidin-5-yl]-1-piperidyl]prop-2-en-1-one], the GI50 in assay [1], in assay [2] and in assay [3] was under 50 nM in each case.
Take `C=CC(=O)N1CCC(c2c[nH]c3ncnc(Nc4ccc(OCc5cscn5)c(Cl)c4F)c23)CC1` [Compound 216, 1-(4-(4-((3-chloro-2-fluoro-4-(thiazol-4-ylmethoxy)phenyl)amino)-7H-pyrrolo[2,3-d]pyrimidin-5-yl)piperidin-1-yl)prop-2-en-1-one]: the GI50 in assay [1], in assay [2] and in assay [3] was under 50 nM each time.
Regarding `C=CC(=O)N1CCC(c2c[nH]c3ncnc(Nc4ccc(OCc5cccc(F)c5)c(Cl)c4)c23)CC1` [Compound 228, 1-(4-(4-((3-chloro-4-((3-fluorobenzyl)oxy)phenyl)amino)-7H-pyrrolo[2,3-d]pyrimidin-5-yl)piperidin-1-yl)prop-2-en-1-one], the GI50 in assay [1], in assay [2] and in assay [3] was under 50 nM each time.
`C=CC(=O)N1[C@@H]2CC[C@H]1CC(c1c[nH]c3ncnc(Nc4ccc(OCc5ccccn5)c(Cl)c4)c13)C2` (stereo partly drawn) [Compound 230]: the GI50 in assay [1], in assay [2] and in assay [3] was under 50 nM in each case.
